Assay results: patent US5565462A, “Composition for topical treatment of psoriasis and atopic dermatitis comprising a xanthine derivative” (Teva Pharmaceutical Industries, Ltd., priority 1991, dated 1996)
“Also recorded” adds a separate entry of the source.

Assays:
[1] = test system: human peripheral blood mononuclear cells (lymphocytes); experiment: Inhibition of the mitogenic (PHA) stimulation of human lymphocytes (PBMC), [3H]thymidine; format: cell-based; details: for inhibition at 1000 µM / inhibition at 300 µM: Homo sapiens, Lymphocyte, lymphocytes from healthy volunteers, read-out: net inhibitory effect on the mitogenic stimulation of human lymphocytes; for inhibition at 1000 µM: 1 × 10^-3 M; for inhibition at 300 µM: 3 × 10^-4 M
Procedure: Buffy coats from the Beilinson Medical Center Blood Bank or 20 mL samples of heparinized venous blood from healthy or atopic donors were used as a source for human peripheral blood mononuclear (PBM) cells. PBM cells were separated by Ficoll-Hypaque density gradient centrifugation. […] The nonadhering cells were stirred gently and carefully collected.
PHA (1 μg/mL), indomethacin (5 μg/mL) and various xanthine derivatives were added at initiation of culture. Indomethacin was dissolved in ethanol. […] [methyl-^3 H]Thymidine (1 μCi/well) was added at 68 h, and the cells were harvested 4 h later using an automated cell harvester (Dynatech, Alexandria, Va.). Unless otherwise stated, all cultures were performed in triplicate.

[2] = test system: human psoriatic fibroblasts; experiment: Inhibition of human psoriatic fibroblast proliferation; format: cell-based
Procedure: PTX and PPF, alone as well as PTX in combination with other drugs were tested.
Human psoriatic fibroblasts were obtained from skin biopsies of 5 individuals with plaque psoriasis. Cells in the 3-7th passages were used for the experiments. Human psoriatic fibroblasts (4×10^3 -6×10^3 cells) were added in 24-well plates and cultured in Dulbecco's Modified Eagle's Medium (DMEM) supplemented with 10% fetal calf serum, 2 mM L-glutamine, 100 u/ml penicillin, 100 μg/ml streptomycin (DMEM+) at 5% CO2 and 95% humidity at 37° C.
After 3 days, medium was replaced with fresh DMEM+(control) or with medium containing various concentrations of compounds alone or in combination with pentoxifylline and incubation was continued for additional 3 days. Stock solutions (10^-1 -10^-2 M) of the compounds tested were made in ethanol. For these compounds special control (DMEM+ with 1% ethanol) was made. The compounds tested together with pentoxifylline were 3-heptanone, 3,3-dimethylbutyric acid, lipoic acid, 1,25-dihydroxyvitamin D3 betamethasone dipropionate and hydrocortisone-17-butyrate.
On the last day of experiments, the medium was aspirated and the cells were obtained by trypsinization. The number of cells in each well was counted by the use of an hemocytometer.
The percentage of inhibition of fibroblast proliferation was calculated according to the formula: [formula] and the results are shown in Tables 3 and 4.

[3] = test system: peripheral blood mononuclear cells (PBMC); details: Ravid et al. 1990; cited from earlier work
psoriasis lesions = experiment: Clinical trial in psoriasis, 5% dyphylline cream vs placebo, PASI; format: in vivo, human patients; details: for % Decrease in PASI: 5% dyphylline cream, n = 33
Procedure: Two similar plaque areas of psoriasis (i.e. both legs or forearms), were selected for treatment in each patient. In each patient one area on one side of the body was treated with 2% pentoxifylline formulated as in Example 1 and the other area on the other side of the body was treated with placebo cream formulated identically but without the pentoxifylline. The cream (formulation A in Example 1) was applied by the patient twice daily.
The dermatological assessment was performed as follows. The dermatologist measured the area of the lesion in cm^2. The severity of each lesion was evaluated by grading erythema, scaling and thickness on a 0-4 scale where 0=none, 1=slight, 2=moderate, 3=severe and 4=exceptionally severe.
Based on these measurements the Psoriasis Area Severity Index (PASI) was calculated for each of the 2 lesions on each patient as follows:
PASI=Area x (Erythema+Thickness+Scaling)
In a different series of tests 5% dyphylline cream was applied in the same vehicle that had been used to apply PTX cream. Thus the formulation used in this series of tests was the same as in Example 1 with the exception that 5% dyphylline was used in place of 2% pentoxifylline. The design of the trial was similar in all respects to the clinical trial of PTX described in Example 5 except that the number of patients was 33.

[4] = test system: human psoriatic skin transplants; experiment: Topical treatment of human psoriatic skin transplanted to nude mice (epidermal thickness / acanthosis); format: in vivo, human skin on outbred Balb/C nude mice; details: for % Improvement (Decrease in Thickness) / Average Improvement (decrease in epidermal thickness): 7 days; for Average Improvement (decrease in epidermal thickness): placebo 5%
From the text: Human psoriatic skin from psoriatic patients was transplanted to nude mice essentially according to the method of G. Kreuger et al., Prog. in Dermatol. […] The donors had stable plaque type psoriasis for at least one year preceding biopsy and had not received systemic anti-psoriatic therapy for the 4 weeks preceding biopsy. They had also not received topical therapy or U.V. therapy for the two weeks preceding biopsy. […] In this method the area (A) of the psoriasis in four main body parts (head (H), trunk (T), upper extremities (U) and lower extremities (L)) is assigned a value from 0-6 depending on the extent of psoriasis where O reflects no involvement and 6 reflects 90-100% involvement. The severity of the lesion is assessed based on three parameters: Erythema (E), Desquamation (scaling) (D) and Infiltration (I). The severity of each of these parameters is measured on a scale of 0-4 where 0 is no involvement and 4 is very sever. The total severity score is calculated according to the following formula: […]
Split thickness biopsies of nonpustular psoriatic human tissue, 4×5 cm and 0.4 mm thick were obtained from the edge of established plaques from various donor patients. […] The grafts were allowed to heal for one week prior to topical application of the test preparations.
Outbred Balb/C nude mice, 2 to 3 months of age were used in this study. The mice were obtained from the pathogen free animal breeding facility at the University of Tel Aviv (Israel) and were raised in the pathogen-free animal facility at the Faculty of Medicine, Technion-Israel Institute of Technology, Haifa, Israel.
On the day following the end of treatment the severity of the psoriatic lesion was assessed and then the animals were sacrificed and the entire graft was excised and divided into two equal sections. One section was used to assess changes in the rate of proliferation by autoradiography (tritiated thymidine incorporation) while the other section was sectioned for microscopic histological assessment, including acanthosis and parakeratosis.
In another series of experiments, human psoriatic skin of various severities was transplanted on each of 28 nude mice. The graft area was treated with various preparations as described above.
The treatments were applied as creams and were administered as described above.

[5] = additional drug 10^-3 M with PTX 10^-3 M
[6] = additional drug 10^-3 M with PTX 10^-4 M
[7] = additional drug 10^-4 M with PTX 10^-3 M
[8] = additional drug 10^-4 M with PTX 10^-4 M
[9] = additional drug 10^-7 M with PTX 10^-4 M

With Cn1c(=O)c2[nH]cnc2n(C)c1=O [Theophylline] as the compound, how does the inhibition at 1000 µM [1] read?
Its inhibition at 1000 µM is 59%.

What about the inhibition at 300 µM [1] of the same compound?
The inhibition at 300 µM was 37%.

Which “% Inhibition of Proliferation” value [2, 5] does the source give for CCCCCC(C)=O [2-Heptanone] here?
Its value is 45%.

What about the “% Inhibition of Proliferation” value [2, 6] of the same compound?
The value was 18.6%.

What about the “% Inhibition of Proliferation” value [2, 7] of the same compound?
The value was 26.4%.

What about the “% Inhibition of Proliferation” value [2, 8] of the same compound?
Its value is 21.0%.

And the “% Inhibition of Proliferation” value ([2]; additional drug 10^-5 M with PTX 10^-3 M)?
The value was 21.3%.

For C[C@@H]1C[C@H]2[C@@H]3CCC4=CC(=O)C=C[C@]4(C)[C@@]3(F)[C@@H](O)C[C@]2(C)[C@@]1(O)C(=O)CO [dexamethasone], which “inhibition of mitogenic stimulation of PBMC (in words)” value [3] is on record?
Its value is “inhibited the mitogenic stimulation of PBMC”.

With CCC(=O)OCC(=O)[C@@]1(OC(=O)CC)[C@@H](C)C[C@H]2[C@@H]3CCC4=CC(=O)C=C[C@]4(C)[C@@]3(F)[C@@H](O)C[C@@]21C [Betamethasone dipropionate, betamethasone dipropionate] as the compound, how does the “% Inhibition of Proliferation” value [2, 7] read?
The value was 77.5%.

And the “% Inhibition of Proliferation” value [2, 8]?
The value was 55.8%.

And the “% Inhibition of Proliferation” value [2, 9]?
Its value is 43.1%.

What does the source list for CCCn1cnc2c1c(=O)n(CCCCC(C)=O)c(=O)n2C [Propentofylline, 3-methyl-7-propyl-1-(5-oxohexyl)-xanthine]?
inhibition at 1000 µM [1]: 89%; inhibition at 300 µM [1]: 88%; inhibition of the mitogenic stimulation compared with the other xanthine derivatives (in words) ([1]; vs theophylline and diphylline, healthy volunteers): inhibited the mitogenic stimulation to a far greater effect than the other xanthine derivatives; inhibition at 1000 µM ([2]; Homo sapiens, Fibroblast, compound alone, 10^-3 M, Table 4): 39 ± 7%; inhibition at 100 µM ([2]; Homo sapiens, Fibroblast, compound alone, 10^-4 M, Table 4): 20.3 ± 6.6%

What does the source list for CC(C)(C)CC(=O)O [3,3dimethyl butyricacid, 3,3-dimethylbutyric acid]?
% Inhibition of Proliferation [2, 5]: 21%; % Inhibition of Proliferation [2, 6]: 36.3%; % Inhibition of Proliferation [2, 7]: 17.2%; % Inhibition of Proliferation [2, 8]: 19.3%

With C=C1/C(=C\C=C2/CCC[C@]3(C)[C@@H]([C@H](C)CCCC(C)(C)O)CC[C@@H]23)C[C@@H](O)C[C@@H]1O [1,25(OH)2 D3, 1,25-dihydroxyvitamin D3] as the compound, how does the “% Inhibition of Proliferation” value [2, 9] read?
The value was 49.5%.

Which “% Inhibition of Proliferation” value [2, 7] does the source give for O=C(O)CCCCC1CCSS1 (centres unmarked) [Lipoicacid, lipoic acid] here?
The value was 50.2%.

And the “% Inhibition of Proliferation” value [2, 8]?
The value was 14.5%.

What does the source list for Cn1c(=O)c2c(ncn2CC(O)CO)n(C)c1=O (centres unmarked) [Dyphylline]?
effectiveness of treatment of psoriasis (in words) (psoriasis lesions; 5% dyphylline cream vs placebo): nearly ineffective with respect to placebo; also recorded: virtually inactive in the treatment of psoriasis; % Decrease in PASI (psoriasis lesions; 1 week, placebo 12.4): 12.6%; % Decrease in PASI (psoriasis lesions; 2 weeks, placebo 30.0): 25.9%; % Decrease in PASI (psoriasis lesions; 4 weeks, placebo 21.5): 28.0%; % Decrease in PASI (psoriasis lesions; 6 weeks, placebo 15.6): 26.5%; inhibition at 1000 µM [1]: 24%; inhibition at 300 µM [1]: 12%; SUCCESS RATIO (decrease of at least 15% in epidermal thickness) ([4]; 8% dyphylline, 7 days topical, placebo 0/6): 0/2; % Improvement (Decrease in Thickness) ([4]; 8% dyphylline, donor patient 1 (PASI 3.2)): 0%; % Improvement (Decrease in Thickness) ([4]; 8% dyphylline, donor patient 5 (PASI 31.3)): 0%; Average Improvement (decrease in epidermal thickness) ([4]; 8% dyphylline): 0%; Epidermal Thickness (Acanthosis) after 7 days treatment ([4]; 8% dyphylline, donor patient 1 (PASI 3.2), before treatment 44 μm): 65 μm; Epidermal Thickness (Acanthosis) after 7 days treatment ([4]; 8% dyphylline, donor patient 5 (PASI 31.3), before treatment 35 μm): 45 μm; effectiveness in treating psoriasis (in words) ([4]; experiment of Table 1, transplanted skin): virtually inactive; effectiveness in treating psoriasis (in words) ([4]; experiment of Table 2, 28 nude mice): inactive

For CCC(=O)O[C@]1(C(=O)CCl)[C@@H](C)C[C@H]2[C@@H]3CCC4=CC(=O)C=C[C@]4(C)[C@@]3(F)[C@@H](O)C[C@@]21C [Clobetasol propionate], which “Average Improvement (decrease in epidermal thickness)” value ([4]; 0.05% clobetasol propionate (Dermovate)) is on record?
The value was 35%.

What about the “% Improvement (Decrease in Thickness)” value ([4]; 0.05% clobetasol propionate, donor patient 1 (PASI 3.2)) of the same compound?
Its value is 45%.

And the “% Improvement (Decrease in Thickness)” value ([4]; 0.05% clobetasol propionate, donor patient 3 (PASI 7.6))?
The value was 41%.

And the “% Improvement (Decrease in Thickness)” value ([4]; 0.05% clobetasol propionate, donor patient 4 (PASI 17.6))?
The value was 55%.

And the “% Improvement (Decrease in Thickness)” value ([4]; 0.05% clobetasol propionate, donor patient 5 (PASI 31.3))?
Its value is 0%.

And the “Epidermal Thickness (Acanthosis) after 7 days treatment” value (shortened to “Epidermal Thickness (Acanthosis)”) ([4]; 0.05% clobetasol propionate, donor patient 1 (PASI 3.2), before treatment 44 μm)?
Its value is 24 μm.

And the “Epidermal Thickness (Acanthosis)” value ([4]; 0.05% clobetasol propionate, donor patient 3 (PASI 7.6), before treatment 46 μm)?
Its value is 27 μm.

What about the “Epidermal Thickness (Acanthosis)” value ([4]; 0.05% clobetasol propionate, donor patient 4 (PASI 17.6), before treatment 54 μm) of the same compound?
Its value is 24 μm.

And the “Epidermal Thickness (Acanthosis)” value ([4]; 0.05% clobetasol propionate, donor patient 5 (PASI 31.3), before treatment 35 μm)?
The value was 47 μm.
